Measurements reported in ChEMBL document CHEMBL1201862, “PubChem BioAssay data set” (2004).
The source made the active and inactive calls.

How the values were obtained:
[1] = P. falciparum ATP4 D1247Y mutant growth inhibitors, dose response, NITD609-resistant line, SYBR Green, dry powder (AID 1159571); type: functional, cell-based;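 note: parasites synchronized at ring stage by sorbitol before testing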
[2] = P. falciparum Dd2 growth inhibitors, dose response, SYBR Green, dry powder samples (AID 1159566); type: functional, cell-based;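 note: potency for growth inhibition with lower SYBR green DNA signal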
[3] = P. falciparum Dd2 growth inhibitors, dose response, SYBR Green, cherry-picked samples (AID 1159567); type: functional, cell-based
[4] = HepG2 cell cytotoxicity, dose response, cytotoxicity control, plate reader, dry powder samples (AID 1159569); type: functional, cell-based;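 note: inhibitor potency with signal falling toward the positive control level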
[5] = P. falciparum 3D7-ScDHODH growth inhibitors, dose response, SYBR Green, dry powder samples (AID 1159570); type: functional, cell-based;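 note: parasite growth measured after 72 hours of compound exposure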
[6] = target: Endoplasmic reticulum aminopeptidase 1 (Homo sapiens, UniProt Q9NZ08); assay: ERAP1 aminopeptidase inhibitors, dose response, biochemical, cherry-pick, set 2, plate reader (AID 743314)
[7] = Luminescence Cell-Based Dose Confirmation HTS to Identify Inhibitors of Platelet Dense Granule Release. [Related pubchem assays: 1663 (Primary HTS), 1678 (Summary of Project)]; type: functional
Protein skinhead-1 = target: T1, Protein skinhead-1 (Caenorhabditis elegans, UniProt P34707); type: functional
T1 sequence (P34707 whole entry): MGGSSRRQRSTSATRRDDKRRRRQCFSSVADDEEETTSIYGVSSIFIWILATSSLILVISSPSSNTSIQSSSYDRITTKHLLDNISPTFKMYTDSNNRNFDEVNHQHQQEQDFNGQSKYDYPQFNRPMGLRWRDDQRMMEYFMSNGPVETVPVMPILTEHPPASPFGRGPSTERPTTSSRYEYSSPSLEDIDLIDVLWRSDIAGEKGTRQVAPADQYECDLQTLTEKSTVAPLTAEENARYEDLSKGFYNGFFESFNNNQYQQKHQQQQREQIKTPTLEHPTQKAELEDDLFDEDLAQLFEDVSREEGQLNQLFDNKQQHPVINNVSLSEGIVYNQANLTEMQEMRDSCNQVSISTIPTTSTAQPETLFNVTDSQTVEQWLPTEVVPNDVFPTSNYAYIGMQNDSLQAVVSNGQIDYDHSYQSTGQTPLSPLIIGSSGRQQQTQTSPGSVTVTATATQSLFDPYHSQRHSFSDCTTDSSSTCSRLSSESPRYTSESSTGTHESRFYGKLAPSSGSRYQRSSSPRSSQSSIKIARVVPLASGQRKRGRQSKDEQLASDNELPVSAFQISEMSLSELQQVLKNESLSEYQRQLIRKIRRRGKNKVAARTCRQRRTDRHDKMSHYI

[8] = target: Luciferin 4-monooxygenase (Photinus pyralis, UniProt P08659); assay: firefly luciferase enzyme inhibitors, dose response, biochemical, luminescence (AID 1891)
[9] = Luminescence-based cell-based high throughput dose response assay to identify activators of the DAF-12 from the parasite S. stercoralis (ssDAF-12).; type: functional
[10] = target: T2, Rac GTPase-activating protein 1 (Homo sapiens, UniProt Q9H0H5); assay: MgcRacGAP GTPase-activating activity inhibitors, confirmation, biochemical, ADP Hunter fluorescence, primary and confirmatory (AID 624330); type: functional
T2 sequence (Q9H0H5 whole entry): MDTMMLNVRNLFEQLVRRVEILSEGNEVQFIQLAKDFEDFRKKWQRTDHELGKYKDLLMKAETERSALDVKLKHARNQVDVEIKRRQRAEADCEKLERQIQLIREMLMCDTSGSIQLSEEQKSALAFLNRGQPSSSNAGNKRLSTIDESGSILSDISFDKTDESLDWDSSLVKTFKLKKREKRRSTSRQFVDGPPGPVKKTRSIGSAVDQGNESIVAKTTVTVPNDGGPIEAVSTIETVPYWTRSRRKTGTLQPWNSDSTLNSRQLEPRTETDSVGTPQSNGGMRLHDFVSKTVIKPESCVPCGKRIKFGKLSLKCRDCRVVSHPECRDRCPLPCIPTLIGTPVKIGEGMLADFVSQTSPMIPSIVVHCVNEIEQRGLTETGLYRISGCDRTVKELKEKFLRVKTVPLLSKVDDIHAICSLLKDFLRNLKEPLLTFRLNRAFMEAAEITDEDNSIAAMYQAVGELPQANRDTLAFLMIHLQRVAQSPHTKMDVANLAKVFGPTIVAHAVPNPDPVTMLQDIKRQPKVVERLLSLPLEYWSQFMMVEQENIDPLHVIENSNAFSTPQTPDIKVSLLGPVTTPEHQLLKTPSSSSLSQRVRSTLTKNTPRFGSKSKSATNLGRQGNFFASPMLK

Genome polyprotein = Genome polyprotein (dengue virus type 2, UniProt P29990); assay: Dengue-2 NS5 methyltransferase inhibitors, primary screen, biochemical, confirmation dose response (AID 588689); type: functional
[11] = target: Neurotensin receptor type 1 (Homo sapiens, UniProt P30989); type: functional;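 note: Image-based confirmatory dose-response assay measuring agonist activity at NTR1; NTR1-expressing U2OS osteosarcoma cells imaged for beta-arrestin GFP spot formation; agonist potency where compounds increase beta-arrestin recruitment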
[12] = cytotoxicity in HEK-293T cells, dose response, cytotoxicity control for BCR NF-kB inhibitor project, luminescence, B-cell screen hits (AID 489021); type: functional, cell-based;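 note: HEK-293T cells carrying an NF-kB luciferase reporter; cells exposed to compound for about 14 hours before viability readout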
[13] = cytotoxicity in OVCAR8 ovarian cancer cells, dose response, PAX8 project, cell-based, plate reader, dry powder samples (AID 743197); type: functional; conditions: OVCAR-8
Paired box protein Pax-8 = Paired box protein Pax-8 (Homo sapiens, UniProt Q06710); assay: inhibitors of PAX8-driven TPO luciferase reporter, dose response, RMG-I cells, cherry-pick (AID 687027); type: functional, cell-based;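 note: luciferase reporter driven by Pax8 target thyroperoxidase promoter measured by SteadyGlo luminescence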
[14] = HEp-2 cell cytotoxicity, dose response, cytotoxicity control for RSV inhibitor project, HTS (AID 2410); type: functional; conditions: human respiratory syncytial virus
[15] = Shn3 3'UTR reporter inhibitors, dose response, cell-based, Clone20 osteoblasts, firefly luciferase, cherry-picked (AID 624132); type: functional;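 note: firefly luciferase luminescence from reporter carrying the Shn3 3'UTR in osteoblasts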
[16] = target: T3, COUP transcription factor 2 (Homo sapiens, UniProt P24468); assay: Luminescence-based cell-based high throughput dose response assay to identify inhibitors of COUP-TFII (NR2F2).; type: functional;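 note: HEK293 cells transiently cotransfected with COUP-TFII expression vector and reporter; luciferase reporter luminescence driven by COUP-TFII from the pX2-168 reporter plasmid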
T3 sequence (P24468 whole entry): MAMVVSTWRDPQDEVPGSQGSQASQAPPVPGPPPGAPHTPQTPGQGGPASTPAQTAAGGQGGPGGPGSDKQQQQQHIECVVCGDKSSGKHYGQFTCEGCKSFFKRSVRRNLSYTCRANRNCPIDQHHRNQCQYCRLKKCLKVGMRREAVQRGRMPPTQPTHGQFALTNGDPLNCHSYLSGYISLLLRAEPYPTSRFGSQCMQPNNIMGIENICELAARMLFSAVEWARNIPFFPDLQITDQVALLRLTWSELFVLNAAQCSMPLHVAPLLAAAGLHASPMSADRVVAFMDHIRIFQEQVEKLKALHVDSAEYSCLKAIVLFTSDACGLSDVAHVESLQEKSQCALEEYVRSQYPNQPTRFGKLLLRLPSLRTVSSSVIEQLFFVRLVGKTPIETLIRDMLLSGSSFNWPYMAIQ

P388/ADR = assay: cells; type: functional; conditions: Mus musculus
P388 = assay: cells; type: functional; conditions: Mus musculus
SN12K1 = assay: cells; type: functional; conditions: Homo sapiens
[17] = control 3'UTR Renilla luciferase suppression, dose response, counter-screen for Shn3 inhibitor project, cell-based, Clone20-Shn3RL, cherry-picked (AID 624133); type: functional
[18] = target: T4, Dual specificity protein phosphatase 6 (Rattus norvegicus, UniProt Q64346); assay: MKP-3 phosphatase inhibitors, primary screen, biochemical, rat enzyme, in vitro (AID 425)
T4 sequence (Q64346 whole entry): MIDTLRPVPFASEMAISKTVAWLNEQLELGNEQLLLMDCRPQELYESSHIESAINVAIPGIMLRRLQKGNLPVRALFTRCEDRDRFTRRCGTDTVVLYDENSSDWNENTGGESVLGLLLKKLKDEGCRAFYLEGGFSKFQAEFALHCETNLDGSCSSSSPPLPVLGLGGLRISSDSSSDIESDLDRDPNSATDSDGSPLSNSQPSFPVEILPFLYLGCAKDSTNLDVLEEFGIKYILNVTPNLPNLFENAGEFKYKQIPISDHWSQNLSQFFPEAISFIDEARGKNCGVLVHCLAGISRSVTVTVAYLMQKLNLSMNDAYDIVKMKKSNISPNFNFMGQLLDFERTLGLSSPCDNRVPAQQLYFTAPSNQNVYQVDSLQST

[19] = C. albicans growth with fluconazole, confirmation, fluorescence, retest (AID 2467); type: functional, cell-based
[20] = target: T5, DNA repair protein RAD52 homolog (Homo sapiens, UniProt P43351); type: functional, biochemical
T5 sequence (P43351 whole entry): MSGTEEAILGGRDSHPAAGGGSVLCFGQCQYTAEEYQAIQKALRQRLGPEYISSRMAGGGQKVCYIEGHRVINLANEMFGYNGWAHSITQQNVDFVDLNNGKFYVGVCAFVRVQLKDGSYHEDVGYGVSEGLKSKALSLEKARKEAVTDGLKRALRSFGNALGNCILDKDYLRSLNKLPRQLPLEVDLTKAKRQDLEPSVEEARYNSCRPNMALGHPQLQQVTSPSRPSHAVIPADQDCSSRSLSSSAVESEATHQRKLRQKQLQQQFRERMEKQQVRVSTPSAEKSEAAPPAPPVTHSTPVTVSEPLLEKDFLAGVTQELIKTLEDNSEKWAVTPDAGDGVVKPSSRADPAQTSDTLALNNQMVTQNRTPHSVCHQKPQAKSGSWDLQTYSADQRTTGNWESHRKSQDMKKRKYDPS

INS1 = assay: beta cell apoptosis inhibitors, cytokine rescue, dose response, luminescence, retest (AID 449756); type: functional, cell-based; conditions: Rattus norvegicus;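 note: cell death triggered by IL-1 beta plus TNF-alpha plus IFN-gamma mixture; protective hits raise ATP signal compared with cytokine alone wells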
[21] = NIH-3T3 fibroblast cytotoxicity, dose response, cytotoxicity control, cell-based, fluorescence, Alamar Blue, secondary assay (AID 2327); type: functional;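 note: NIH-3T3 mouse fibroblasts cultured with fluconazole at 8 µg/mL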
[22] = microbe, parasite or virus in culture; type: functional; conditions: Mycobacterium tuberculosis
Vero = assay: cells; type: functional, cell-based; conditions: Chlorocebus sabaeus
[23] = Luminescence Cell-Based Dose Retest to Confirm Inhibitors of Cancer Stem Cells. [Related pubchem assays (depositor defined):AID2717, AID2721]; type: functional; conditions: Homo sapiens
HeLa = assay: HeLa cell cytotoxicity, dose response, cytotoxicity control, 24 h, cherry-picked samples (AID 504726); type: functional, cell-based; conditions: Homo sapiens;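 note: potency for cytotoxicity as loss of luminescence signal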

Endoplasmic reticulum aminopeptidase 1, sequence (Q9NZ08 whole entry): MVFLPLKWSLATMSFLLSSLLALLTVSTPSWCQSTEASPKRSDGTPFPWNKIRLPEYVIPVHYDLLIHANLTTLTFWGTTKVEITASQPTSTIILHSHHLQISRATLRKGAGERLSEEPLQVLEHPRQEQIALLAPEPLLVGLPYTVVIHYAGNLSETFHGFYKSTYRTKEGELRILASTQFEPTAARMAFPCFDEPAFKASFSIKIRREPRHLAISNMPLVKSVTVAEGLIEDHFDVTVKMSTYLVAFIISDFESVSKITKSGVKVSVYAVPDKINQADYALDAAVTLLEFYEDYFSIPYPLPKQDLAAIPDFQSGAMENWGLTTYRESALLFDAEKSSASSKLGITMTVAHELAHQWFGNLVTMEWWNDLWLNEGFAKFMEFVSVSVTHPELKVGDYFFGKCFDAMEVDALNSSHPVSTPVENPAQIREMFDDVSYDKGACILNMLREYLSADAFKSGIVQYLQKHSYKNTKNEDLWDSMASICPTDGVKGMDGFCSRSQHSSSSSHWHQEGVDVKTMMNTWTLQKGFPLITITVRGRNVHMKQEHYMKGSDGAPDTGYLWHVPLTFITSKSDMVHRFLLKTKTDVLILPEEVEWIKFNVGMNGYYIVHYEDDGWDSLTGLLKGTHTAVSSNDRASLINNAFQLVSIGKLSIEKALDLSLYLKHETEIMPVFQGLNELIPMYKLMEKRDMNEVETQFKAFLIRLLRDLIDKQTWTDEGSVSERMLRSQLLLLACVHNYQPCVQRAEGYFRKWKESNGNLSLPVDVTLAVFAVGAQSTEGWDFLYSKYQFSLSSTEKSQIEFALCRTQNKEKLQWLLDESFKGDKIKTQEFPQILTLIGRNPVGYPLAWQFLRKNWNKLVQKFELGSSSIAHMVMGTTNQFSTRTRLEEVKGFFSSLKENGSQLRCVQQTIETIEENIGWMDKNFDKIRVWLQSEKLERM
Paired box protein Pax-8, sequence (Q06710 whole entry): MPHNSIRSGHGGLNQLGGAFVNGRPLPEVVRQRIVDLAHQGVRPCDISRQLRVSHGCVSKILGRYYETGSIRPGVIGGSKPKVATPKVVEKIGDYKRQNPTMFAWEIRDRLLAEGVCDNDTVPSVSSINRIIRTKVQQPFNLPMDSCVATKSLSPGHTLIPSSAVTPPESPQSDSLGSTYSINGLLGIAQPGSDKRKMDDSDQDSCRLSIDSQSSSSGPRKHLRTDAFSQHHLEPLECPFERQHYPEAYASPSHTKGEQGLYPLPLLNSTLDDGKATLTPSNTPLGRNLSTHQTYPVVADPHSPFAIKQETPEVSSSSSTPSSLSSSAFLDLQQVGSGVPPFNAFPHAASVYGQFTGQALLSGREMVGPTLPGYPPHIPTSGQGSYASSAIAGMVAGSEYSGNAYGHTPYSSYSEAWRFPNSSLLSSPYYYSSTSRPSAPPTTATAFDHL
Neurotensin receptor type 1, sequence (P30989 whole entry): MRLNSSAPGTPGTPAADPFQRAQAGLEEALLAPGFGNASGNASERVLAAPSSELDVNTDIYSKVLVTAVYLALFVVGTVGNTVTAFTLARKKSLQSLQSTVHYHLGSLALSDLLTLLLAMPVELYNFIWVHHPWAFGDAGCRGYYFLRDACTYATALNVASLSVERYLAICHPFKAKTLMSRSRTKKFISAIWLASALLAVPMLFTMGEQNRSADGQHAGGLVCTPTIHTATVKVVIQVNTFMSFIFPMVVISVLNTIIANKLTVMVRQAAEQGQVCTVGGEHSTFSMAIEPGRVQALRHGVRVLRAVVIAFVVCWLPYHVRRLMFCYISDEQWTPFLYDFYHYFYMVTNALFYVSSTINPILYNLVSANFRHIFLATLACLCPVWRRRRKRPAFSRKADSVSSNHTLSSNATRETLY
Luciferin 4-monooxygenase, sequence (P08659 whole entry): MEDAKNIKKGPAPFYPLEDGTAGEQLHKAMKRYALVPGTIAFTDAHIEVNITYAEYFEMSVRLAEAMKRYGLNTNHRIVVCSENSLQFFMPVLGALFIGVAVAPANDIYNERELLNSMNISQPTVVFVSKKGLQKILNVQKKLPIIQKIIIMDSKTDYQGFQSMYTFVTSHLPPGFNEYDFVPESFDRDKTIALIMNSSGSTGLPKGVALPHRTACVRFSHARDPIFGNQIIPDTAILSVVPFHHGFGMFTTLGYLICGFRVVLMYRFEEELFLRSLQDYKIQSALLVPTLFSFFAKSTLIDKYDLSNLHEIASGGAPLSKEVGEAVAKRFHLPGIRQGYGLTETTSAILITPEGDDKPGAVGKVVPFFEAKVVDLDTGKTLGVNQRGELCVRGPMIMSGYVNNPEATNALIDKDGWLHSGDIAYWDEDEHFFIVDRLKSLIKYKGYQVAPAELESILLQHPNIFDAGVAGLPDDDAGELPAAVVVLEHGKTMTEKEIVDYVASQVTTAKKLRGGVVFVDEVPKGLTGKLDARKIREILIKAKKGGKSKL
Genome polyprotein, sequence (P29990 2492-3391 limits assumed): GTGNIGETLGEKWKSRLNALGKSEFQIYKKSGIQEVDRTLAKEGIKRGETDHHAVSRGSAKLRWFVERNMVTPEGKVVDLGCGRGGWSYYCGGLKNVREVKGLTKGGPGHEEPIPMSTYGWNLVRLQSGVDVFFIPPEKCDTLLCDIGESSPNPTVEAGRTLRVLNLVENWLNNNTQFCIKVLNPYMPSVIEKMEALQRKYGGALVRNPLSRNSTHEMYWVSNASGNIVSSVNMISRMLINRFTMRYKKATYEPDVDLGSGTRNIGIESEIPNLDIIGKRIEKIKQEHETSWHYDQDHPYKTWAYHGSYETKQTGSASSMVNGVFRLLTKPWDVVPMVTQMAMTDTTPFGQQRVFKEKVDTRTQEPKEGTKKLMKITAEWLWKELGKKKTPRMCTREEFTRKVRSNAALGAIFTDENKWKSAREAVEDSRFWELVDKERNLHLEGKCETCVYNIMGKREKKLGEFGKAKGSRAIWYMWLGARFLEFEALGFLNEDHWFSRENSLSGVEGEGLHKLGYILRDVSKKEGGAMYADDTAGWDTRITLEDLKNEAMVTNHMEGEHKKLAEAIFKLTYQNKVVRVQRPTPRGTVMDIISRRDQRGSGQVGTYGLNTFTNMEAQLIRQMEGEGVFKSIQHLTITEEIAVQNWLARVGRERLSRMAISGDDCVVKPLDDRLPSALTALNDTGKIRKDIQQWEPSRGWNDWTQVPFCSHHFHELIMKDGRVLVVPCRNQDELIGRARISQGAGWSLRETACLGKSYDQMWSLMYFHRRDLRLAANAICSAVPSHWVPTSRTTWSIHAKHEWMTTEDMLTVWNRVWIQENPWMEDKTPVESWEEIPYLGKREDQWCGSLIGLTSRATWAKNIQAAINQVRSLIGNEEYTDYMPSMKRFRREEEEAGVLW

C[C@H](CO)N1C[C@H](C)[C@H](CN(C)C(=O)Nc2cc(F)ccc2F)Oc2cc(/C=C/c3ccccc3)ccc2S1(=O)=O
AC50 [1]: 2.06 µM (active)
AC50 [2]: 0.962 µM (active)
AC50 [3]: 1.77 µM (active)
AC50 [4]: 86.7 µM (active)
AC50 [5]: 2.62 µM (active)

N#Cc1c(N2CCNCC2)nc(-c2ccco2)c2c1CCCC2
AC50 [6]: 6.11 µM (active)

O=C(/C=C/Nc1ccccc1F)c1cccs1
EC50 [7]: 4.56 µM (active)
IC50 (Protein skinhead-1): 14.7 µM (active)
EC50 [8]: 0.641 µM (active)
IC50 [9]: > 67.6 µM (inactive)

CC1(C)CC(=O)C(C(C2=C(O)CC(C)(C)CC2=O)c2ccc(Br)s2)C(=O)C1 (configuration not stated)
IC50 [10]: 61.5 µM (active)
IC50 (Genome polyprotein): 21.5 µM (active)
EC50 [11]: 19.6 µM (active)

N#C[C@H]1[C@@H](c2ccc(C#Cc3ccccc3F)cc2)[C@@H](CO)N1C(=O)C1CCC1
AC50 [1]: 1.04 µM (active)
AC50 [2]: 0.613 µM (active)
AC50 [3]: 1.57 µM (active)
AC50 [4]: 44.9 µM (active)
AC50 [5]: 0.779 µM (active)

CC(=O)N1[C@@H]2c3ccc(/C=C/c4ccccc4)c(=O)n3C[C@H]1[C@H](CO)[C@H]2C(=O)N1CCOCC1
AC50 [6]: 3.12 µM (active)

CC(C)(O)/C=C/C(=O)[C@](C)(O)C1[C@H](O)C[C@@]2(C)C3CC=C4C(C[C@H](O)[C@@H](O)C4(C)C)[C@]3(C)C(=O)C[C@]12C (some centres not stated)
IC50 [12]: > 80 µM (inactive)

Cc1cc(C(=O)Nc2cccc3c2O[C@H](CN(C)Cc2ccc(Oc4ccccc4)cc2)[C@@H](C)CN([C@H](C)CO)C3=O)n(C)n1
AC50 [13]: > 70 µM (inactive)
AC50 (Paired box protein Pax-8): 13.2 µM (active)

Cc1ccc(NC(=O)CN(C)C(=O)CSc2nc3ccccc3c(=O)n2Cc2ccco2)cc1
IC50 (cells): 44.3 µM (active)
CC50 [14]: 36.7 µM (active)

COc1cccc(CN2CCCCN3[C@H](CO)[C@@H](c4ccc(C#Cc5cccnc5)cc4)[C@@H]3C2)c1
AC50 [1]: 1.21 µM (active)
AC50 [2]: 0.427 µM (active)
AC50 [3]: 1.34 µM (active)
AC50 [4]: 22.7 µM (active)
AC50 [5]: 2.2 µM (active)

COC(=O)C12OCC34C(CC5C(C)=C(O)C(=O)CC5(C)C3C(O)C1O)OC(=O)C(OC(=O)C=C(C)C)C24 (configuration not stated)
AC50 [15]: < 0.26 µM (active)
IC50 [16]: 0.0223 µM (active)
IC50 (Protein skinhead-1): 35.7 µM (active)
GI50 (P388/ADR): > 500 µM (inactive)
GI50 (P388): > 500 µM (inactive)
AC50 (Paired box protein Pax-8): < 0.26 µM (active)
GI50 (SN12K1): 277 µM (inactive)
AC50 [17]: 0.687 µM (active)

COc1ccc(Cc2nn3c(-c4cc(OC)c(OC)c(OC)c4)nnc3s2)cc1
IC50 [18]: > 100 µM (not active)

Oc1ccc(-[n+]2c(-c3ccccc3)cc(-c3ccccc3)cc2-c2ccccc2)cc1.[O-][Cl+3]([O-])([O-])[O-]
EC50 [19]: 0.879 µM (active)
AC50 [20]: 9.88 µM (active)
IC50 [16]: 9.1 µM (active)
AC50 (INS1): 3.38 µM (active)
EC50 [21]: > 160 µM (inactive)
CC50 [22]: 9.19 µM (active)

O=C(CCNC(=O)c1ccc(Br)cc1)NC1CCCc2ccccc21 (configuration not stated)
IC50 (cells): 6.76 µM (active)
CC50 [14]: 43.7 µM (active)
IC50 (Vero): 9.27 µM (active)

CCCCNc1c(-c2ccc(OC)c(SC(C)CC)c2)nc2ccc(C)cn12 (configuration not stated)
AC50 [23]: 6.87 µM (active)
AC50 (INS1): 4.34 µM (active)
EC50 [11]: 15.4 µM (active)

Cc1ccc(/C=C/S(=O)(=O)N2CCC(C(=O)O)CC2)cc1
AC50 (HeLa): > 350 µM (inactive)

CN(C)Cc1c(O)ccc2cc(-c3nc4ccccc4n3C)c(=O)oc12
AC50 [6]: 1.56 µM (active)
